Assay results reported in patent US12370167B2, “Blood-brain barrier permeability regulator and use thereof” (ZHEJIANG UNIVERSITY, priority 2019, dated 2025).

Experiments:
[1] = tested on: blood-brain barrier permeability; test: Brain distribution of DiR-labelled Angiopep-2-modified glycolipid nano-delivery system after SC79 in in situ glioma model; format: in vivo, BABL/c nude mice; settings: SC79 5 mg/kg tail vein 24 hours before the DiR-labelled system; brain taken after 4 hours; vs tumor-bearing control group
Procedure: FIG. 12: Regulation of increase in the blood-brain barrier permeability and enhancement of distribution of Angiopep-2-modified glycolipid nano-delivery system in the brain by SC79. SC79 was injected into tail veins of tumor-bearing animals at an administration dose of 5 mg/kg. After 24 hours, the Angiopep-2-modified glycolipid nano-delivery system encapsulated with near-infrared fluorescent probe DiR was injected into tail veins. After 4 hours, the intact brain of the nude mice was taken by cardiac perfusion.
Male BABL/c nude mice (20+2 g) were used as the model animals. U87-luci glioma cells expressing luciferase were inoculated in the striatum area of nude mice at a concentration of 5×10^5 cells/5 μL by means of a brain stereotaxic instrument (inoculation coordinates, 0.8 mm on the anterior side of bregma, 2 mm on the right side, and 3 mm in depth), to construct an in situ glioma model. SC79 diluted with 0.2% injection grade Tween 80 solution was injected into tail veins at an administration dose of 5 mg/kg. After 24 hours, the Angiopep-2-modified glycolipid nano-delivery system encapsulated with near-infrared fluorescent probe DiR was injected into tail veins. After 4 hours, the intact brain of the nude mice was taken by cardiac perfusion. […]

[2] = tested on: brain microvascular endothelial cells bEnd.3; test: FITC-dextran transport across physiological blood-brain barrier Transwell model; format: cell-based; settings: SC79 0, 5, 10 μg/mL; 24 hours, then FITC-dextran 10 kDa for 4 hours
Procedure: FIG. 7: In vitro dose-dependent influence of SC79 on the efficiency of transportation of FITC-dextran cross the blood-brain barrier. A Transwell model of brain microvascular endothelial cells bEnd.3 was used to mimic the physiological blood-brain barrier. SC79 at different concentrations (0, 5 μg/mL, 10 μg/mL) was applied to the Transwell chamber. After 24 hours, the Transwell chamber and the outer chamber were washed with PBS. A solution of FITC-dextran in HBSS was added to the Transwell chamber for an action of 4 hours.
(§1) Brain microvascular endothelial cells bEnd.3 were used as model cells of a blood-brain barrier. 0.5 mL suspension of well-grown bEnd.3 cells was inoculated in the chamber of a 12-well Transwell plate with a pore size of 0.4 μm at a cell density of 1×10^5/well. 1.5 mL of fresh culture medium was supplemented in the outer chamber. The culture medium was refreshed every other day. Incubation was continued for 15 days at 37° C. and 5% CO2. […]
A protein kinase B activator SC79 at different concentrations ([…], 10 μg/mL) was added into the Transwell chamber in the model of physiological blood-brain barrier. […] After the cells were incubated at 37° C. in the dark for 4 hours, the concentration of FITC-dextran transferred to the outer chamber via the Transwell chamber was detected with a fluorescence spectrophotometer.

[3] = tested on: tight junction proteins Claudin-5/Occludin in bEnd.3 cells; test: Claudin-5/Occludin immunofluorescence in physiological blood-brain barrier Transwell model after SC79; format: cell-based; settings: SC79 0, 5, 10 μg/mL, 24 hours
Procedure: FIG. 8: In vitro dose-dependent down-regulation of expression of tight junction proteins Claudin-5/Occludin by SC79. A Transwell model of brain microvascular endothelial cells bEnd.3 was used to mimic the physiological blood-brain barrier. SC79 at different concentrations (0, 5 μg/mL, 10 μg/mL) was applied to the Transwell chamber. After 24 hours, the bEnd.3 cells on the membrane of the Transwell chamber were immunofluorescence stained.
Brain microvascular endothelial cells bEnd.3 were used as model cells of a blood-brain barrier. 0.5 mL suspension of well-grown bEnd.3 cells was inoculated in the chamber of a 12-well Transwell plate with a pore size of 0.4 μm at a cell density of 1×10^5/well. 1.5 mL of fresh culture medium was supplemented in the outer chamber. The culture medium was refreshed every other day. Incubation was continued for 15 days at 37° C. and 5% CO2. When the cell transmembrane resistance value was greater than 150 ohm·cm^2 (Ω·cm^2), it may be regarded that a model of physiological blood-brain barrier was obtained.
A protein kinase B activator SC79 at different concentrations (0, 5 μg/mL, 10 μg/mL) was added into the Transwell chamber in the model of physiological blood-brain barrier. […]

[4] = tested on: bEnd.3 cells; bEnd.3 co-incubated with U87 MG; test: Real-time transmembrane resistance of physiological and pathological blood-brain barrier models after SC79; format: cell-based; settings: SC79 5 μg/mL
Procedure: FIG. 9: In vitro time-dependent regulation of transmembrane resistance of the blood-brain barrier by SC79. A Transwell model of brain microvascular endothelial cells bEnd.3 was used to mimic the physiological blood-brain barrier. A Transwell model of co-incubated brain microvascular endothelial cells bEnd.3 and glioma cell U87 MG was used to mimic the pathological blood-brain barrier. SC79 (5 μg/mL) was applied to the Transwell chamber. The cell transmembrane resistance was real-time monitored by a cell resistance meter (n=5).
as §1
The physiological blood-brain barrier and the pathological blood-brain barrier, as respectively constructed according to the procedures described in the above sections of 1 and 2 of Example 2, were used as a model, respectively. […] The cell transmembrane resistance was real-time monitored.

SMILES: CCOC(=O)C1=C(N)Oc2ccc(Cl)cc2C1C(C#N)C(=O)OCC (centres unmarked) [SC79]
- distribution of Angiopep-2-modified glycolipid nano-delivery system in the brain [1]: increased
- blood-brain barrier permeability (FITC-dextran in outer chamber) [2]: increase the blood-brain barrier permeability
- expression of tight junction proteins Claudin-5/Occludin [3]: promotes down-regulation of expression of tight junction proteins
- effect in increasing the blood-brain barrier permeability ([4]; after 24 hours of the drug action): most significant effect
- cell transmembrane resistance over time ([4]; physiological and pathological models, real-time): decreased in a time-dependent manner
